In paper PMC11237399, “Synergistic effects of sulopenem in combination with cefuroxime or durlobactam against Mycobacterium abscessus” (mBio, 2024):

Key:
[1] = system: T1, Mycobacteroides abscessus subsp. abscessus Mab 686; assay: microbe, parasite or virus in culture; parameters: species or system Mycobacterium abscessus clinical isolates; broth microdilution MIC in Middlebrook 7H9 with OADC and Tween 80, 30 C, 3-7 days, visible growth; conditions: single agent, read-out: MIC50 (μg/ml) Alone
T1 construct: clinical isolate Mab686
Method: (§1) Minimum inhibitory concentrations (MICs) of sulopenem and CXM were determined using microdilution. Approximately 5 × 10^5 colony-forming units (CFU) per milliliter were inoculated into Middlebrook 7H9 broth supplemented with 10% (vol/vol) oleic albumin dextrose catalase (OADC) and 0.05% (vol/vol) Tween 80. When CXM is combined with sulopenem, the CXM is added at a fixed concentration of 4 µg/mL to serial dilutions of sulopenem. Isolates were incubated with test agents at 30°C for 3–7 days, and MIC was defined as the lowest antibiotic concentration that prevented visible bacterial growth. We use active moiety compounds, like cefuroxime salt, and not cefuroxime axetil. The 54 clinical isolates analyzed in this study were obtained from deidentified patients. To ensure consistency and reliability, we specifically selected isolates from our well-characterized whole genome-sequenced clinical isolates belonging to the Mycobacterium abscessus subspecies abscessus. Of these, 34 isolates were sourced from National Jewish Health, whereas 11 and 9 isolates were obtained from University Hospitals Cleveland Medical Center and Cleveland Metrohealth, respectively. Additionally, ATCC 19977 was acquired from the American Type Culture Collection (ATCC). The active ingredient cefuroxime (CXM) salts and avibactam (AVI) were purchased from AchemBlock, sulopenem was sourced from Iterum Therapeutics, and durlobactam (DUR) was provided from Entasis Therapeutics. All β-lactams and BLIs were prepared in sterile, distilled water or in broth and filter-sterilized with a 0.22 µm PES syringe filter.

[2] = system: T2, Mycobacteroides abscessus subsp. abscessus Mab 122; assay: microbe, parasite or virus in culture; parameters: species or system Mycobacterium abscessus clinical isolates; broth microdilution MIC in Middlebrook 7H9 with OADC and Tween 80, 30 C, 3-7 days, visible growth; conditions: single agent, read-out: MIC50 (μg/ml) Alone
T2 construct: clinical isolate Mab122
Method: as §1

LdtMab2 = biological target: T3, LdtMab2 (Mycobacteroides abscessus, UniProt B1MMQ4); assay: intact-protein UPLC-ESI-MS (Q-TOF); format: binding; conditions: covalent; 1:20 enzyme:ligand, 50 mM Tris-HCl pH 7.5, 300 mM NaCl, room temperature
T3 construct: gene MAB_1530; truncated (delta 1-41), pET28a(+), E. coli BL2 (DE3), His tag cut by TEV
T3 sequence (B1MMQ4 42-406): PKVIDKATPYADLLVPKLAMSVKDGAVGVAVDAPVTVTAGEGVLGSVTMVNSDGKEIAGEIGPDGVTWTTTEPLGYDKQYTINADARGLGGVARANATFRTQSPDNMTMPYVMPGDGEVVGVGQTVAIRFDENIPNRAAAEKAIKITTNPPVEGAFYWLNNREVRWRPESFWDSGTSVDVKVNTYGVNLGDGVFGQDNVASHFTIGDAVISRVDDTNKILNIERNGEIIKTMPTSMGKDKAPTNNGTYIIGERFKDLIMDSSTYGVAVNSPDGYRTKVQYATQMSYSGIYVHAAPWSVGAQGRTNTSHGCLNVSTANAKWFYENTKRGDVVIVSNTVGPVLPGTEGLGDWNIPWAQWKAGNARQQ

PBP B = biological target: T4, PBP B (Mycobacteroides abscessus, UniProt B1MP31); assay: intact-protein UPLC-ESI-MS (Q-TOF); format: binding; conditions: covalent; 1:20 enzyme:ligand, 50 mM Tris-HCl pH 7.5, 300 mM NaCl, room temperature
T4 construct: gene MAB_2000; truncated (delta 1-41), pET28a(+), E. coli BL2 (DE3), His tag cut by TEV
T4 sequence (B1MP31 42-642): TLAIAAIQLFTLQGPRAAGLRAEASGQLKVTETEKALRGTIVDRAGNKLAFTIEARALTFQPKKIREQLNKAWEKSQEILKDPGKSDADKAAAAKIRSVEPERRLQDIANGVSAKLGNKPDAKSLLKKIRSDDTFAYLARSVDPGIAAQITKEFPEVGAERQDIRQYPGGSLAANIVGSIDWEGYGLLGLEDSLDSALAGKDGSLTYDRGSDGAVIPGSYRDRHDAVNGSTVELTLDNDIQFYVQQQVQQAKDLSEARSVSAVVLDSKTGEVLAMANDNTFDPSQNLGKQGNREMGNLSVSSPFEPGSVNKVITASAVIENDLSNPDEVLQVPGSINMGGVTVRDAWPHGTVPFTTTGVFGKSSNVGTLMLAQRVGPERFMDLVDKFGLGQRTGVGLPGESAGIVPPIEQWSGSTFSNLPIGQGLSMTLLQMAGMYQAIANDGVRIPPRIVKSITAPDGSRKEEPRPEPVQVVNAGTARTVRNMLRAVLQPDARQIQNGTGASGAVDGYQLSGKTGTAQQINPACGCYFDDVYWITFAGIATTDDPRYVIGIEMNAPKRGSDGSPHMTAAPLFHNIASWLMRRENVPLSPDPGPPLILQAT

SMILES	MIC50 [1] [µg/mL]	MIC50 [2] [µg/mL]	intact-protein UPLC-ESI-MS (Q-TOF) (LdtMab2)	intact-protein UPLC-ESI-MS (Q-TOF) (PBP B)
C[C@@H](O)[C@H]1C(=O)N2C(C(=O)O)=C(S[C@H]3CC[S@@+]([O-])C3)S[C@H]12 [sulopenem]	2	0.5	–	–
NC(=O)[C@@H]1CC[C@@H]2CN1C(=O)N2OS(=O)(=O)O [avibactam]	> 128	> 128	–	–
CO/N=C(\C(=O)N[C@@H]1C(=O)N2C(C(=O)O)=C(COC(N)=O)CS[C@H]12)c1ccco1 [cefuroxime]	8	4	CXM engaged solely with LdtMab2 and PBP B	CXM engaged solely with LdtMab2 and PBP B
